Reference: patent US20240343747A1, “Heteroaryl compounds as inhibitors of TYK2, composition and application thereof” (Accro Bioscience (HK) Limited, priority 2021, published 2024)

Tests used:
JAK2 JH1 = JAK2 JH1 (Homo sapiens (Human), UniProt O60674); assay: Competitive binding assay (kinase-tagged phage, qPCR), JAK2 JH1
Experimental: For most assays, kinase-tagged T7 phage strains were prepared in an E. coli host derived from the BL21 strain. E. coli were grown to log-phase and infected with T7 phage and incubated with shaking at 32° C. until lysis. The lysates were centrifuged and filtered to remove cell debris. The remaining kinases were produced in HEK-293 cells and subsequently tagged with DNA for qPCR detection. Streptavidin coated magnetic beads were treated with biotinylated small molecule ligands for 30 minutes at room temperature to generate affinity resins for kinase assays. The liganded beads were blocked with excess biotin and washed with blocking buffer (SeaBlock (Pierce), 1% BSA, 0.05% Tween 20, 1 mM DTT) to remove unbound ligand and to reduce non-specific binding. […] Test compounds were prepared as 111X stocks in 100% DMSO. Dissociation constants (Kds) were determined using an 11-point 3-fold compound dilution series with three DMSO control points. […] The kinase concentration in the eluates was measured by qPCR.
An 11-point 3-fold serial dilution of each test compound was prepared in 100% DMSO at 100× final test concentration and subsequently diluted to 1× in the assay (final DMSO concentration=1%). Most Kds were determined using a compound top concentration=30,000 nM. […]
Binding constants (Kds) were calculated with a standard dose-response curve using the Hill equation: […]

TYK2/JAK2 pathway = assay: Selectivity: TYK2/JAK2 pathway, IL-12-induced p-STAT4 in mouse spleen cells, western blot; type: cell-based, mice
Experimental: The spleen of mice was isolated and ground into single cells with bent tweezers. The single cells of the spleen were centrifuged for 5 minutes (400 g), and erythrocytes were lysed with ACK solution and neutralized in 1640 medium, centrifuged for 5 minutes (400 g), and then re-suspended in 1640 medium. The spleen single cell suspension was counted and incubated to a 6-well plate (5 million/well), the compound to be tested was added for 2 hours, and then IL-12 (50 ng/mL) was added to stimulate cells for 1 h. The cells were collected and lysed with protein lysate. The protein was quantitatively tested by BCA kit. Finally, p-STAT4/STAT4 and internal reference protein β-actin were detected by western blot.

[1] = Metabolic stability test, rat liver microsomes; type: in vitro ADME
Experimental: • 1. Buffer A: 1.0 L of 0.1 M monobasic Potassium Phosphate buffer containing 1.0 mM EDTA • Buffer B: 1.0 L of 0.1 M Dibasic Potassium Phosphate buffer containing 1.0 mM EDTA • Buffer C: 0.1 M Potassium Phosphate buffer, 1.0 mM EDTA, at about pH 7.4 by titrating 700 mL of Buffer B with Buffer A while monitoring with the pH meter. • 2. Reference compounds (Ketanserin) and test compounds spiking solution: • 500 µM spiking solution: add 10 μL of 10 mM DMSO stock solution into […] ACN. • 1.5 µM spiking solution in microsomes (0.75 mg/mL): add 1.5 μL of 500 µM spiking solution and 18.75 μL of 20 mg/mL liver microsomes into 479.75 μL of Buffer C on ice. • 3. Prepare NADPH stock solution (6 mM) by dissolving NADPH into buffer C. • 4. Dispense 30 μL of 1.5 µM spiking solution containing 0.75 mg/mL microsomes solution to the assay plates designated for different time points (0-, 5-, 15-, 30-, 45-min) on ice. • 5. For 0-min, add 135 μL of ACN containing IS to the wells of 0-min plate and then add 15 μL of NADPH stock solution (6 mM). • 6. Pre-incubate all other plates at 37° C. for 5 minutes. • 7. Add 15 μL of NADPH stock solution (6 mM) to the plates to start the reaction and timing. • 8. At 5-min, 15-min, 30-min, and 45-min, add 135 μL of ACN containing IS to the wells of corresponding plates, respectively, to stop the reaction. • 9. After quenching, shake the plates at the vibrator (IKA, MTS 2/4) for 10 min (600 rpm/min) and then centrifuge at 5594 g for 15 min (Thermo Multifuge×3R). • 10. Transfer 50 μL of the supernatant from each well into a 96-well sample plate containing 50 μL of ultra pure water (Millipore, ZMQS50F01) for LC/MS analysis.

Chain of JAK2 JH1 (O60674 849-1124): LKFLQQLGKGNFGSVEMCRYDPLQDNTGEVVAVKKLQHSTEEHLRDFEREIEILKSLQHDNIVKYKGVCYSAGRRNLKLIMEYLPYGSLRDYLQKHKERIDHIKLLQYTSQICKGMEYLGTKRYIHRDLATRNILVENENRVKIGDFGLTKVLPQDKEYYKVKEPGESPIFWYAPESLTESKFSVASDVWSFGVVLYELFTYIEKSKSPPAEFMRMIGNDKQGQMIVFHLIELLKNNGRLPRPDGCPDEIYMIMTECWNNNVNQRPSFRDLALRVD

SMILES	Kd (JAK2 JH1) [µM]	inhibition of TYK2/JAK2 pathway compared with BMS986165 (TYK2/JAK2 pathway; IL-12)	inhibition of downstream STAT4 phosphorylation induced by IL-12 (TYK2/JAK2 pathway; IL-12 50 ng/mL, western blot)	stability in rat liver microsomes (in words) ([1]; conclusion from Table 5)	half-life at 1 μM ([1]; pH 7.4, rat liver microsomes, read-out: T1/2 RLM) [h]	CL RLM ([1]; rat liver microsomes) [mL/min/kg]
CCC(=O)c1cnc(NC(=O)C2CC2)cc1Nc1cccc(-c2cc(P(=O)(C3CC3)C3CC3)n(C)n2)c1OC [Compound B37, N-(4-((3-(5-(dicyclopropylphosphoryl)-1-methyl-1H-pyrazol-3-yl)-2-methoxyphenyl)amino)-5-propionylpyridin-2-yl)cyclopropanecarboxamide]	> 30	better than BMS986165	effectively inhibit			
CCC(=O)c1cnc(NC(=O)C2CC2)cc1Nc1cccc(-c2cc(P(C)(C)=O)n(C)n2)c1OC [Compound B2, N-(4-((3-(5-(dimethylphosphoryl)-1-methyl-1H-pyrazol-3-yl)-2-methoxyphenyl)amino)-5-propionylpyridin-2-yl)cyclopropanecarboxamide]				good stability	1.68	24.6
